Measured values reported in ChEMBL document CHEMBL1201862, “PubChem BioAssay data set” (2004).
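All cell lines were grown in 96-well plates and treated with compound for 48 hours. GI50: concentration for 50% inhibition of growth.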 Calls of active or inactive are those of the source. No stated cut-off is given here; in the data, active = GI50 up to about 1.1 µM and inactive = higher.

How the values were obtained:
Assay in all cases: NCI-60 cell line screen, 48 h
[1] = system: SK-MEL-5
[2] = system: SNB-75
[3] = system: SK-MEL-2
[4] = system: LOX IMVI
[5] = system: LXFL 529
[6] = system: 786-0
[7] = system: OVCAR-4
[8] = system: SK-OV-3
[9] = system: U-251
[10] = system: UO-31
[11] = system: NCI-H522
[12] = system: EKVX
[13] = system: OVCAR-8
[14] = system: HCT-116
[15] = system: M19-MEL
[16] = system: KM-20L2
[17] = system: SN12C
[18] = system: UACC-257
[19] = system: SF-539
[20] = system: NCI-H460
[21] = system: OVCAR-5
[22] = system: ACHN
[23] = system: SF-268
[24] = system: XF498
[25] = system: HOP-62
[26] = system: HT-29
[27] = system: CCRF-CEM
[28] = system: M14
[29] = system: SF-295
[30] = system: A549
[31] = system: Malme-3M
[32] = system: DLD-1
[33] = system: OVCAR-3
[34] = system: UACC-62
[35] = system: HL-60
[36] = system: SR
[37] = system: NCI-H226
[38] = system: HOP-92
[39] = system: HCT-15
[40] = system: KM12
[41] = system: TK-10
[42] = system: IGROV-1
[43] = system: SK-MEL-28
[44] = system: COLO 205
[45] = system: SNB-78
[46] = system: NCI-H23
[47] = system: RPMI-8226
[48] = system: MOLT-4
[49] = system: HCC 2998
[50] = system: A498
[51] = system: DMS-273
[52] = system: CAKI-1
[53] = system: RXF 393
[54] = system: DMS-114
[55] = system: DU-145
[56] = system: PC-3
[57] = system: T47D
[58] = system: MDA-MB-435
[59] = system: MCF7
[60] = system: MDA-MB-231
[61] = system: BT-549
[62] = system: SNB-19
[63] = system: MDA-N
[64] = system: SW-620
[65] = system: K562
[66] = system: NCI/ADR-RES

**Q.** What does the source list for `Cc1c(-c2coc(-c3ccc(Cl)cc3)n2)c(=O)n(-c2ccccc2)n1C`?
**A.** GI50 [1]: > 100 µM (inactive); GI50 [2]: > 100 µM (inactive); GI50 [3]: > 100 µM (inactive); GI50 [4]: > 100 µM (inactive); GI50 [5]: > 100 µM (inactive); GI50 [6]: > 100 µM (inactive); GI50 [7]: > 100 µM (inactive); GI50 [8]: > 100 µM (inactive); GI50 [9]: > 100 µM (inactive); GI50 [10]: > 100 µM (inactive); GI50 [11]: > 100 µM (inactive); GI50 [12]: > 100 µM (inactive); GI50 [13]: > 100 µM (inactive); GI50 [14]: > 100 µM (inactive); GI50 [15]: > 100 µM (inactive); GI50 [16]: > 100 µM (inactive); GI50 [17]: > 100 µM (inactive); GI50 [18]: > 100 µM (inactive); GI50 [19]: > 100 µM (inactive); GI50 [20]: > 100 µM (inactive); GI50 [21]: > 100 µM (inactive); GI50 [22]: > 100 µM (inactive); GI50 [23]: > 100 µM (inactive); GI50 [24]: 19.1 µM (inactive); GI50 [25]: > 100 µM (inactive); GI50 [26]: > 100 µM (inactive); GI50 [27]: > 100 µM (inactive); GI50 [28]: > 100 µM (inactive); GI50 [29]: > 100 µM (inactive); GI50 [30]: > 100 µM (inactive); GI50 [31]: > 100 µM (inactive); GI50 [32]: > 100 µM (inactive); GI50 [33]: 93.3 µM (inactive); GI50 [34]: > 100 µM (inactive); GI50 [35]: > 100 µM (inactive); GI50 [36]: > 100 µM (inactive); GI50 [37]: > 100 µM (inactive); GI50 [38]: > 100 µM (inactive); GI50 [39]: > 100 µM; GI50 [40]: > 100 µM (inactive); GI50 [41]: > 100 µM (inactive); GI50 [42]: > 100 µM (inactive); GI50 [43]: > 100 µM (inactive); GI50 [44]: > 100 µM (inactive); GI50 [45]: > 100 µM (inactive); GI50 [46]: > 100 µM (inactive); GI50 [47]: > 100 µM (inactive); GI50 [48]: > 100 µM (inactive); GI50 [49]: 9.4 µM (inactive); GI50 [50]: > 100 µM (inactive); GI50 [51]: > 100 µM (inactive)

**Q.** What does the source list for `N#C/N=C(/NCc1ccccc1)N(Cc1ccccc1)Cc1ccccc1`?
**A.** GI50 [1]: 14.9 µM (inactive); GI50 [3]: 15.2 µM (inactive); GI50 [4]: 19.2 µM (inactive); GI50 [52]: 28.5 µM (inactive); GI50 [5]: > 10 µM (inactive); GI50 [53]: 27.7 µM (inactive); GI50 [6]: 23.2 µM (inactive); GI50 [7]: 23.8 µM (inactive); GI50 [8]: > 10 µM (inactive); GI50 [54]: > 10 µM (inactive); GI50 [9]: 24.7 µM (inactive); GI50 [10]: 16.4 µM (inactive); GI50 [11]: 15.1 µM (inactive); GI50 [12]: > 10 µM (inactive); GI50 [13]: 20.2 µM (inactive); GI50 [14]: 17.8 µM (inactive); GI50 [15]: > 10 µM (inactive); GI50 [55]: 63 µM (inactive); GI50 [16]: > 10 µM (inactive); GI50 [17]: 25.2 µM (inactive); GI50 [56]: 28.2 µM (inactive); GI50 [18]: > 10 µM (inactive); GI50 [19]: 23.7 µM (inactive); GI50 [20]: 19.6 µM (inactive); GI50 [21]: 29.9 µM (inactive); GI50 [57]: 35 µM (inactive); GI50 [22]: > 10 µM (inactive); GI50 [23]: 22.2 µM (inactive); GI50 [58]: 49.1 µM (inactive); GI50 [24]: > 10 µM (inactive); GI50 [25]: > 31.6 µM (inactive); GI50 [26]: > 10 µM (inactive); GI50 [27]: 16.1 µM (inactive); GI50 [28]: 23.4 µM (inactive); GI50 [29]: 15.3 µM (inactive); GI50 [59]: 36.1 µM (inactive); GI50 [30]: 16.4 µM (inactive); GI50 [31]: > 10 µM (inactive); GI50 [32]: > 10 µM (inactive); GI50 [33]: 22.6 µM (inactive); GI50 [34]: 8.13 µM (inactive); GI50 [35]: 16.8 µM (inactive); GI50 [60]: 18.3 µM (inactive); GI50 [36]: 24.8 µM (inactive); GI50 [37]: 22.4 µM (inactive); GI50 [38]: 24.6 µM (inactive); GI50 [39]: 20.7 µM; GI50 [40]: 27.6 µM (inactive); GI50 [41]: 24.8 µM (inactive); GI50 [61]: 61.4 µM (inactive); GI50 [42]: 17.4 µM (inactive); GI50 [43]: 27.5 µM (inactive); GI50 [44]: > 10 µM (inactive); GI50 [62]: > 89.1 µM (inactive); GI50 [63]: 46.7 µM (inactive); GI50 [46]: 19.8 µM (inactive); GI50 [47]: 22.9 µM (inactive); GI50 [48]: 14.1 µM (inactive); GI50 [49]: 32.9 µM (inactive); GI50 [64]: 64 µM (inactive); GI50 [65]: 26.3 µM (inactive); GI50 [66]: 30.3 µM (inactive); GI50 [50]: > 10 µM (inactive); GI50 [51]: > 10 µM (inactive)
